Reference: patent US12338199B2, “Bis-octahydrophenanthrene carboxamides and protein conjugates thereof” (REGENERON PHARMACEUTICALS, INC., priority 2017, dated 2025)

Tests used:
THP1/LXR-Luc cells [1] = experiment: THP1/LXR-Luc luciferase reporter bioassay; type: cell-based; details: Homo sapiens, THP-1, 48 hours
Method in brief: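 THP1 cells stably carrying an LXR-response-element firefly luciferase reporter were seeded at 30,000/well in RPMI/10% FBS and given 3-fold dilutions (100 nM to 0.01 nM) for 48 or 72 h. Luminescence was read with One-Glo. EC50 came from a 4-parameter fit of a 10-point curve, and fold activation was taken relative to maximal free-payload activation.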

LXR beta = biological target: T1, LXR beta (Homo sapiens, UniProt P55055); experiment: LanthaScreen TR-FRET LXR beta Coactivator Assay (cell-free binding); details: TR-FRET, 12-point curve; read-out: Cell free binding LXRβ IC50
T1 construct: LXR alpha or beta LBD-GST; purchased ThermoFisher PV4658
T1 sequence (P55055 222-460 limits assumed): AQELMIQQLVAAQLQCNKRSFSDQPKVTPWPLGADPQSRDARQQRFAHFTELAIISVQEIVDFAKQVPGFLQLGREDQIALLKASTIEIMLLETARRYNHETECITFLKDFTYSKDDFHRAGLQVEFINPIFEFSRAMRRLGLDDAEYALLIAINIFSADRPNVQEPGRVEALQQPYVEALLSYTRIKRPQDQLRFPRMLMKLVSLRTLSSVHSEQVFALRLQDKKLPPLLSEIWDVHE

THP1/LXR-Luc cells [2] = experiment: LXR-luciferase reporter bioassay in PMA-differentiated THP1/LXR-Luc cells; type: cell-based, human; details: for EC50: Homo sapiens, THP-1, 48 h, read-out: EC50
Text: To test the efficacy of anti-MSR1 antibody-LXR conjugates in vitro, a cell-based LXR responsive luciferase reporter assay was developed. To generate the assay cell line, a LXR regulated luciferase reporter gene [Cignal Lenti LXR Reporter (luc) kit (Qiagen, Cat # CLS-001L)] was transduced into THP1 cells, and cells were selected for two weeks in puromycin. The lentivirus expresses the firefly luciferase gene under the control of a minimal CMV promoter and tandem repeats of the LXR transcriptional response element. The resulting cell line is referred to as THP1/LXR-Luc cells.
THP1/LXR-Luc cells were seeded onto 96 well plates at 40,000 cells/well in media containing RPMI supplemented with 10% FBS and pencillin/streptomycin and subsequently differentiated with 200 nM Phorbol Myristate Acetate (PMA) for 3 days. After the 3-day differentiation period, three-fold serial dilutions of antibody drug conjugates, unconjugated antibodies, or free payloads in fresh media were added to the cells at final concentration ranging from 100 nM to 0.01 nM. Media alone served as a blank control. Forty-eight hours later, luciferase activity was determined after the addition of One-Glo™ reagent (Promega, Cat # E6130) to each well. Relative light units (RLUs) were measured on a Victor luminometer (PerkinElmer) and EC50 values were determined using a four-parameter logistic equation over a 10-point dose response curve (GraphPad Prism). The signal to noise (S/N) was determined by calculating the ratio of RLU of standard one over RLU of standard eight for each of the unconjugated anti-MSR1 antibodies or free payloads. “LP #” represents a linker-payload for which the corresponding structures are provided elsewhere herein, and “P #” represents a payload for which the corresponding structures are provided elsewhere herein.

THP1/LXR-Luc/Her2 cells = experiment: THP1/LXR-Luc/Her2 luciferase reporter bioassay; type: cell-based; details: Homo sapiens
Text: A bioassay was developed to assess the activity of LXR agonists after internalization of an agonist or of a ncADC into cells and binding to LXR, a nuclear receptor, using a commercially available LXR reporter (referred to as LXR-Luc) that contains the firefly luciferase gene under control by minimal CMV promoter and tandem repeats of the LXR transcriptional response element. For this assay, a THP1 cell line, which is a human monocytic leukaemia line, was engineered to express full length human Her2 (expressing amino acids M1 through V1255 of accession number NP_004439.2). The subsequent stable cell line was further transduced with a Cignal LXR Luc Reporter (Qiagen, Cat # CLS-7041L). The resulting stable cell line is referred to herein as THP1/Her2/LXR-Luc. The Her2 cell surface expression on THP1/Her2/LXR-Luc cell line was confirmed by FACS (data not shown).
This example assessed the ability of the LXR agonists provided herein, reference compounds, and anti-Her2 antibody-LXR ncADC to activate LXR. The samples were tested in the THP1/LXR-Luc/Her2 bioassay. For the assay, either THP1/LXR-Luc cells or THP1/LXR-Luc/Her2 cells were seeded onto white 96 well plates at 30,000 cells/well in media containing RPMI supplemented with 10% FBS and pencillin/streptomycin (complete media). Subsequently 3-fold serial dilutions of antibody drug conjugates, unconjugated antibodies, or free payloads were added to the cells at final concentration ranging from 100 nM to 0.01 nM. After 48-hour or 72-hour incubation, luciferase activity was determined after the addition of One-Glo™ reagent (Promega, Cat # E6130) to each well of cells. Relative light units (RLUs) were measured on a Victor luminometer (PerkinElmer) and the EC5o values were determined using a four-parameter logistic equation over a 10-point dose response curve (GraphPad Prism) (FIG. 15). The fold activation is calculated based on the maximum activation of the free payload 9d.

## C[C@]1(C(=O)NC(=O)[C@@]2(C)CCC[C@]3(C)c4cc(O)ccc4CC[C@@H]23)CCC[C@]2(C)c3cc(N)ccc3CC[C@@H]12 [Compound 9d, (1S,4aS,10aR)—N-[(1S,4aS,10aR)-6-Amino-1,4a-dimethyl-1,2,3,4,4a,9,10,10a-octahydrophenanthrene-1-carbonyl]-6-hydroxy-1,4a-dimethyl-1,2,3,4,4a,9,10,10a-octahydrophenanthrene-1-carboxamide]
THP1/LXR-Luc cells [1]; read-out: Activation of THP1/LXR-Luc cells: EC50
  EC50: ≤ 1 nM
THP1/LXR-Luc cells [1]; relative to maximum activation of free payload 9d, read-out: Activation of THP1/LXR-Luc cells: Fold of activation
  Emax: > 75%
LXR beta
  IC50: < 10 nM
THP1/LXR-Luc cells [2]; 48-hour time point, stimulation of THP1/Luc cells
  EC50: 15.9 nM
THP1/LXR-Luc cells [2]; PMA-differentiated THP1/LXR-Luc cells, 48 hours, luciferase activity (One-Glo), 10-point dose response 100 nM to 0.01 nM
  EC50: 1.14 nM
THP1/LXR-Luc cells [2]; PMA-differentiated THP1/LXR-Luc cells, 48 hours, luciferase activity
  S/N (signal to noise, ratio of RLU of standard one over RLU of standard eight): 15.9
THP1/LXR-Luc/Her2 cells; THP-1, 48 h, 48-hour time point
  EC50: 1.6 nM
THP1/LXR-Luc/Her2 cells; THP-1, 48 h, 48 hours, unit inferred, values correspond to M
  EC50: 1.6 nM
THP1/LXR-Luc/Her2 cells; THP-1, 72 h, 72-hour time point
  EC50: 2.8 nM
THP1/LXR-Luc/Her2 cells; THP-1, 72 h, 72 hours
  EC50: 2.8 nM
